Laboratory results as given in US9862718B2, “Sodium salt of (2S, 5R)-6-benzyloxy-7-oxo-1,6-diaza-bicyclo [3.2.1] octane-2-carboxylic acid and its preparation” (WOCKHARDT LIMITED, priority 2013, dated 2018).

Tests used:
Type in all cases: physicochemical
[1] = stability of the free acid on storage (attempts to prepare this compound); conditions: syrupy in nature
Text: The compound of Formula (V) i.e. (2S,5R)-6-benzyloxy-7-oxo-1,6-diaza-bicyclo[3.2.1]octane-2-carboxylic acid is disclosed in International Patent Application No. PCT/FR01/02418. […] US Patent Publication No. 20100197928 discloses a procedure to prepare a diastereomeric mixture of (S)-5-benzyloxyamino-piperidin-2-carboxylic acid benzyl ester as an oxalate salt in 50:50 ratio.

[2] = hygroscopicity of the isolated solid; conditions: isolated solid material, compared with the corresponding free acid
Procedure: (1) The compound of Formula (I) is isolable as a highly pure solid material (purity of about at least 98% as determined by HPLC) and is a non-hygroscopic material as compared with the corresponding free acid (compound of Formula (V), which is obtained as syrupy material).
The precipitated solid was filtered under suction and the wet cake was washed with chilled acetone (400 ml). The non-hygroscopic solid was dried under vacuum at 40° C. for 1 hour to provide off-white colored material (sodium salt of (2S,5R)-6-benzyloxy-7-oxo-1,6-diaza-bicyclo{3.2.1}-octane-2-carboxylic acid) in 135 gm (89%, calculation adjusted for 70% purity of free acid) quantity.

[3] = stability study on storage at room temperature (purity by HPLC)

Compound: O=C(O)[C@@H]1CC[C@@H]2CN1C(=O)N2OCc1ccccc1 [Formula (V), (2S,5R)-6-benzyloxy-7-oxo-1,6-diaza-bicyclo[3.2.1]octane-2-carboxylic acid]
- stability on storage [1]: unstable

Compound: O=C([O-])[C@@H]1CC[C@@H]2CN1C(=O)N2OCc1ccccc1.[Na+] [Formula (I), sodium salt of (2S,5R)-6-benzyloxy-7-oxo-1,6-diaza-bicyclo[3.2.1]octane-2-carboxylic acid]
- hygroscopicity [2]: non-hygroscopic
- purity as analyzed by HPLC, initial purity ([3]; stability study, room temperature, initial): 99.75%
- stability on storage ([3]; storage at room temperature for three months): excellent stability
- purity as analyzed by HPLC, purity after three months ([3]; storage at room temperature, after three months): 99.66%
- purity as analyzed by HPLC, purity after two moths ([3]; storage at room temperature, after two moths): 99.69%
